Data reported in ChEMBL document CHEMBL1133251, “Synthesis and biological evaluation of 1-azabicyclo-[3.2.1]octanes: new dopamine transporter inhibitors” (Bioorg Med Chem Lett, 2000).

Assays:
[1] = target: Norepinephrine transporter (Rattus norvegicus, UniProt Q9WTR4); experiment: Inhibition of [3H]NE binding to norepinephrine transporter of rat brain synaptosomes; assay type: subcellular
[2] = target: Sodium-dependent serotonin transporter (Rattus norvegicus, UniProt P31652); experiment: Inhibition of [3H]-5-HT binding to serotonin transporter of rat brain synaptosomes; assay type: subcellular
[3] = target: T1, Sodium-dependent dopamine transporter (Rattus norvegicus, UniProt P23977); experiment: Inhibition of [3H]DA binding to dopamine transporter of rat brain synaptosomes; assay type: subcellular
[4] = target: T1, Sodium-dependent dopamine transporter; experiment: Inhibition of [3H]- Mazindol binding to dopamine transporter of rat striatal membrane.

Chain of Norepinephrine transporter (Q9WTR4 whole entry): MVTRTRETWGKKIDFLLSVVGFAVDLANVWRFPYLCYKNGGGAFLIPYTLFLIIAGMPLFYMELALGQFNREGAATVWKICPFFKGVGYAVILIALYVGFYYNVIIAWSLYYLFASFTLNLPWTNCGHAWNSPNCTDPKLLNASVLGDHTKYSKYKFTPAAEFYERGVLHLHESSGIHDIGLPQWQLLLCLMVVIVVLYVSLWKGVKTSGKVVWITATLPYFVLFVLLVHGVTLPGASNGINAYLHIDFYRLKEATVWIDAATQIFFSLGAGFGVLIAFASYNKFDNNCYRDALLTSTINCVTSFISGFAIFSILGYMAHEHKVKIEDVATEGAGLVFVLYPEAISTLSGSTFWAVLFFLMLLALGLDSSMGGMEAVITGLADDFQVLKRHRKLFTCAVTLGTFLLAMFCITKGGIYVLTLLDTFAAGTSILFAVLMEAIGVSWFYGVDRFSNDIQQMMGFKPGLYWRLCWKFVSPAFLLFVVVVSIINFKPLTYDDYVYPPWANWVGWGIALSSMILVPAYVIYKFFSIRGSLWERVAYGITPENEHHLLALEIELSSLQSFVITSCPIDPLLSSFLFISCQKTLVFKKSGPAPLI
Chain of Sodium-dependent serotonin transporter (P31652 whole entry): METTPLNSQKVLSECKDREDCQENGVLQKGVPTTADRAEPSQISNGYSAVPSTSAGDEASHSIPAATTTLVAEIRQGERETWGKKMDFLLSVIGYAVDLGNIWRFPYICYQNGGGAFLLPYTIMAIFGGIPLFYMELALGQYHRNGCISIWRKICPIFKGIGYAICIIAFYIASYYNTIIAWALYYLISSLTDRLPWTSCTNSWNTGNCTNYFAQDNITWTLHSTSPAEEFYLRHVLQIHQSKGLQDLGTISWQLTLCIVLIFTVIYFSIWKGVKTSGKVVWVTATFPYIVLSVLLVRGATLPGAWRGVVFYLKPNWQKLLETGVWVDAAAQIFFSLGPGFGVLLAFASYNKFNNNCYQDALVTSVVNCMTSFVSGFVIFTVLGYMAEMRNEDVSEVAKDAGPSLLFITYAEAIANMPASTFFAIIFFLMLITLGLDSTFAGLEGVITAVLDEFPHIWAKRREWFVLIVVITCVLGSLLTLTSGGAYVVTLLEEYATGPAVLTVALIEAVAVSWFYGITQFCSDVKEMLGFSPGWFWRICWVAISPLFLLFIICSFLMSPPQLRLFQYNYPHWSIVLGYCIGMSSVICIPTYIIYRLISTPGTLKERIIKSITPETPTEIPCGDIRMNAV
T1 sequence (P23977 whole entry): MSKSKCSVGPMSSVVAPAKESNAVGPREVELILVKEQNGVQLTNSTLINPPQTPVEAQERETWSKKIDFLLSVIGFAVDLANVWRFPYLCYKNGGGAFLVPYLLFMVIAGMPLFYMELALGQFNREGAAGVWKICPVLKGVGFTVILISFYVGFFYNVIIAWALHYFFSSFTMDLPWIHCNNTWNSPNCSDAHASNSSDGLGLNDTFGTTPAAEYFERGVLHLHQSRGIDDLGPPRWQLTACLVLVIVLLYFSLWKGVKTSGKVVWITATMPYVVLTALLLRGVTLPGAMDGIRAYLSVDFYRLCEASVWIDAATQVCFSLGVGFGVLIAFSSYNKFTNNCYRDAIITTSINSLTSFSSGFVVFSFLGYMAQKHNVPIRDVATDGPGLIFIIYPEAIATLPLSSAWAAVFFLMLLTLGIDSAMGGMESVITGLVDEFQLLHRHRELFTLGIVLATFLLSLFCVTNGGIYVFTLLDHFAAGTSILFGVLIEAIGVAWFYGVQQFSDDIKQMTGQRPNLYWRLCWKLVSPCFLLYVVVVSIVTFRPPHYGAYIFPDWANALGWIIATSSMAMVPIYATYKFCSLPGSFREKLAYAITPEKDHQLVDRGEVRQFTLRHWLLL

Compound | Ki [1] | Ki [2] | Ki [3] | Ki [4]
CO/N=C1/CN2CC[C@H](c3ccc(Cl)cc3)C1C2 (some centres undefined) | 240 nM | 856 nM | – | –
Clc1ccc([C@@H]2CCN3C/C(=N\OCc4ccccc4)C2C3)cc1 (some centres undefined) | 1550 nM | 117 nM | 1860 nM | –
CO/N=C1\CN2CC[C@H](c3ccc(Cl)cc3)C1C2 (stereo in doubt; (+)-7) | 871 nM | 2640 nM | – | –
CN1CCC(c2ccc(Cl)cc2)C(C(=O)OCCCc2ccccc2)C1 (single isomer, unassigned; (+)) | 72 nM | 2160 nM | 1420 nM | 1490 nM
CO/N=C1\CN2CC[C@@H](c3ccc(Cl)cc3)C1C2 (single isomer, unassigned; (+)) | > 4000 nM | 1790 nM | – | –
CO/N=C1\CN2CC[C@@H](c3ccc(Cl)cc3)C1C2 (stereo in doubt; (-)-7) | 652 nM | 2530 nM | – | –
Clc1ccc([C@@H]2CCN3C/C(=N\OCCCc4ccccc4)C2C3)cc1 (some centres undefined) | 483 nM | 292 nM | 41 nM | 53 nM
CC(C)(C)O/N=C1\CN2CC[C@@H](c3ccc(Cl)cc3)C1C2 (some centres undefined) | 287 nM | 137 nM | 725 nM | 641 nM
CO/N=C1\CN2CC[C@H](c3ccc(Cl)cc3)C1C2 (stereo in doubt; (-)-6) | 305 nM | 503 nM | – | –
COC(=O)C1CN(C)CCC1c1ccc(Cl)cc1 (single isomer, unassigned; (+)) | 90 nM | 5880 nM | 228 nM | 248 nM
CN1CCC(c2ccc(Cl)cc2)C(C(=O)OCCC(c2ccccc2)c2ccccc2)C1 (single isomer, unassigned; (+)) | 3140 nM | 2590 nM | 1160 nM | 420 nM
CO/N=C1/CN2CC[C@@H](c3ccc(Cl)cc3)C1C2 (some centres undefined) | 232 nM | > 2000 nM | – | –
CN1CCC(c2ccc(Cl)cc2)C(C(=O)OCCCCCc2ccccc2)C1 (single isomer, unassigned; (+)) | 382 nM | 1790 nM | 53 nM | 52 nM
